Data from PubChem BioAssay (NCI).
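48-hour exposure; five concentrations; linearly interpolated endpoints. TGI is the concentration that stops growth completely.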

Legend:
Assay in all cases: growth of human tumour cells (NCI), 48 h
[1] = tested on: 786-0 renal
[2] = tested on: A498 renal
[3] = tested on: A549 NSCLC
[4] = tested on: ACHN renal
[5] = tested on: BT-549 breast
[6] = tested on: CAKI-1 renal
[7] = tested on: CCRF-CEM leukemia
[8] = tested on: COLO 205 colon
[9] = tested on: DU-145 prostate
[10] = tested on: EKVX NSCLC
[11] = tested on: HCC-2998 colon
[12] = tested on: HCT-116 colon
[13] = tested on: HCT-15 colon
[14] = tested on: HL-60(TB) leukemia
[15] = tested on: HOP-62 NSCLC
[16] = tested on: HOP-92 NSCLC
[17] = tested on: HS 578T breast
[18] = tested on: HT29 colon
[19] = tested on: IGROV1 ovarian
[20] = tested on: K-562 leukemia
[21] = tested on: KM12 colon
[22] = tested on: LOX IMVI melanoma
[23] = tested on: M14 melanoma
[24] = tested on: MALME-3M melanoma
[25] = tested on: MCF7 breast
[26] = tested on: MDA-MB-231 breast
[27] = tested on: MDA-MB-435
[28] = tested on: MOLT-4 leukemia
[29] = tested on: NCI-H226 lung
[30] = tested on: NCI-H23 lung
[31] = tested on: NCI-H460 lung
[32] = tested on: NCI-H522 lung
[33] = tested on: NCI/ADR-RES ovarian
[34] = tested on: OVCAR-3 ovarian
[35] = tested on: OVCAR-4 ovarian
[36] = tested on: OVCAR-5 ovarian
[37] = tested on: OVCAR-8 ovarian
[38] = tested on: PC-3 prostate
[39] = tested on: RPMI-8226 leukemia
[40] = tested on: RXF 393 renal
[41] = tested on: SF-268 CNS
[42] = tested on: SF-295 CNS
[43] = tested on: SF-539 CNS
[44] = tested on: SK-MEL-2 melanoma
[45] = tested on: SK-MEL-28 melanoma
[46] = tested on: SK-MEL-5 melanoma
[47] = tested on: SK-OV-3 ovarian
[48] = tested on: SN12C renal
[49] = tested on: SNB-19 CNS
[50] = tested on: SNB-75 CNS
[51] = tested on: SR leukemia
[52] = tested on: SW-620 colon
[53] = tested on: T-47D breast
[54] = tested on: TK-10 renal
[55] = tested on: U251 CNS
[56] = tested on: UACC-257 melanoma
[57] = tested on: UACC-62 melanoma
[58] = tested on: UO-31 renal

Q: For `O=C1CCCC/C1=C(\Br)I`, which TGI [1] is on record?
A: 37.5 µM

Q: And the TGI [2]?
A: 35.7 µM

Q: And the TGI [3]?
A: 58.6 µM

Q: What about the TGI [4] of the same compound?
A: 29.6 µM

Q: And the TGI [5]?
A: 31.6 µM

Q: What about the TGI [6] of the same compound?
A: 24.9 µM

Q: And the TGI [7]?
A: 5.68 µM

Q: What about the TGI [8] of the same compound?
A: 28.8 µM

Q: What about the TGI [9] of the same compound?
A: 26 µM

Q: And the TGI [10]?
A: 34.4 µM

Q: What about the TGI [11] of the same compound?
A: 9.79 µM

Q: And the TGI [12]?
A: 25 µM

Q: And the TGI [13]?
A: 7.97 µM

Q: And the TGI [14]?
A: 5.71 µM

Q: What about the TGI [15] of the same compound?
A: 36.7 µM

Q: What about the TGI [16] of the same compound?
A: 31.8 µM

Q: What about the TGI [17] of the same compound?
A: > 100 µM

Q: And the TGI [18]?
A: 27.4 µM

Q: What about the TGI [19] of the same compound?
A: 40.8 µM

Q: And the TGI [20]?
A: 10.3 µM

Q: And the TGI [21]?
A: 34 µM

Q: And the TGI [22]?
A: 32.4 µM

Q: And the TGI [23]?
A: 20.1 µM

Q: And the TGI [24]?
A: 12.1 µM

Q: And the TGI [25]?
A: 32.9 µM

Q: And the TGI [26]?
A: 32.5 µM

Q: And the TGI [27]?
A: 29.4 µM

Q: And the TGI [28]?
A: 7.17 µM

Q: What about the TGI [29] of the same compound?
A: 43.7 µM

Q: And the TGI [30]?
A: 16.8 µM

Q: And the TGI [31]?
A: 33 µM

Q: And the TGI [32]?
A: 3.48 µM

Q: What about the TGI [33] of the same compound?
A: 41.1 µM

Q: And the TGI [34]?
A: 32.1 µM

Q: What about the TGI [35] of the same compound?
A: 29.3 µM

Q: What about the TGI [36] of the same compound?
A: 33.2 µM

Q: What about the TGI [37] of the same compound?
A: 28.1 µM

Q: And the TGI [38]?
A: 32.9 µM

Q: And the TGI [39]?
A: 16.5 µM

Q: What about the TGI [40] of the same compound?
A: 29.5 µM

Q: And the TGI [41]?
A: 14.8 µM

Q: What about the TGI [42] of the same compound?
A: 37.7 µM

Q: And the TGI [43]?
A: 41.2 µM

Q: What about the TGI [44] of the same compound?
A: 38.6 µM

Q: And the TGI [45]?
A: 29.9 µM

Q: And the TGI [46]?
A: 42.1 µM

Q: What about the TGI [47] of the same compound?
A: 49.2 µM

Q: And the TGI [48]?
A: 30.8 µM

Q: And the TGI [49]?
A: 47.5 µM

Q: And the TGI [50]?
A: 34.8 µM

Q: What about the TGI [51] of the same compound?
A: 9.49 µM

Q: And the TGI [52]?
A: 10.4 µM

Q: And the TGI [53]?
A: 15.2 µM

Q: What about the TGI [54] of the same compound?
A: 18.4 µM

Q: And the TGI [55]?
A: 34 µM

Q: What about the TGI [56] of the same compound?
A: 30.5 µM

Q: And the TGI [57]?
A: 38.3 µM

Q: What about the TGI [58] of the same compound?
A: 31.5 µM
